Assay results reported in patent publication US9127004B2, “Nitrogen containing heterocyclic compounds” (Wockhardt Ltd., priority 2011, dated 2015).

What was measured:
Assay in all cases: MIC of Ceftazidime in presence of test compound, agar dilution (CLSI)
Type in all cases: cell-based
E. coli M50 = conditions: compound present at 4 mcg/ml
Method: (§1) The biological activity of representative compounds according to the invention against various bacterial strains was investigated. In a typical study, overnight grown bacterial cultures were diluted appropriately and inoculated on the agar media containing doubling dilutions of the test compounds. Observation for growth or no growth was performed after 16-20 hours of incubation at 35±2° C. in ambient air. The overall procedure was performed as per Clinical and Laboratory Standards Institute (CLSI) recommendations (Clinical and Laboratory Standards Institute (CLSI), Performance Standards for Antimicrobial Susceptibility Testing, 20th Informational Supplement, M 100-S20, Volume 30, No. 1, 2010).
(§2) The antibacterial activity of representative compounds according to the invention was also investigated in combination with at least one antibacterial agent using the above study protocol and the results are given Table 3 and 4.

E. coli 7MP = conditions: compound present at 4 mcg/ml
Method: as §1, §2

E. coli NCTC 13351 = conditions: compound present at 4 mcg/ml, Table 3
Method: as §1, §2

E. coli B 89 = conditions: E. coli B 89, Class C ESBL; compound present at 4 mcg/ml; Table 4
Method: as §1, §2

A. baumannii 13304 = conditions: A. baumannii 13304, Class D ESBL; compound present at 4 mcg/ml; Table 4
Method: as §1, §2

E. coli W 13353 = conditions: E. coli W 13353, Class A ESBL; compound present at 4 mcg/ml; Table 4
Method: as §1, §2

E. coli W 13352 = conditions: E. coli W 13352, Class A ESBL; compound present at 4 mcg/ml; Table 4
Method: as §1, §2

K. pneumoniae H 520 = conditions: K. pneumoniae H 520, KPC ESBL; compound present at 4 mcg/ml; Table 4
Method: as §1, §2

A. baumannii 13301 = conditions: A. baumannii 13301, Class D ESBL; compound present at 4 mcg/ml; Table 4
Method: as §1, §2

E. coli W 13351 = conditions: E. coli W 13351, Class A ESBL; compound present at 4 mcg/ml; Table 4
Method: as §1, §2

K. pneumoniae H 522 = conditions: K. pneumoniae H 522, KPC ESBL; compound present at 4 mcg/ml; Table 4
Method: as §1, §2

K. pneumoniae H 521 = conditions: K. pneumoniae H 521, KPC ESBL; compound present at 4 mcg/ml; Table 4
Method: as §1, §2

Row | Compound | Activity of Ceftazidime (MIC) in presence of compound (E. coli M50; E. coli M50, Table 3) [µg/mL] | Activity of Ceftazidime (MIC) in presence of compound (E. coli 7MP; Table 3) [µg/mL] | Activity of Ceftazidime (MIC) in presence of compound (E. coli NCTC 13351) [µg/mL] | other results
1 | CCc1nnc([C@H]2CC[C@@H]3CN2C(=O)N3OS(=O)(=O)[O-])o1.[Na+] (relative stereo) [Example 2, Sodium salt of trans-6-(sulphooxy)-2-(5-ethyl-[1,3,4]-oxadiazol-2-yl)-7-oxo-1,6-diazabicyclo[3.2.1]-octane] | 16 | 32 | 16 | 
2 | O=C1N2C[C@@H](CC[C@@H]2c2nnc(C(F)(F)F)o2)N1OS(=O)(=O)[O-].[Na+] (relative stereo) [Example 3, Sodium salt of trans-6-(sulphooxy)-2-(5-trifluoromethyl-[1,3,4]-oxadiazol-2-yl)-7-oxo-1,6-diazabicyclo[3.2.1]-octane] | 16 | 32 | 16 | 
3 | NC(=O)c1nnc([C@H]2CC[C@@H]3CN2C(=O)N3OS(=O)(=O)O)o1.[Na] (relative stereo) [Example 4, Sodium salt of trans-6-(sulphooxy)-2-(5-carboxamido-[1,3,4]-oxadiazol-2-yl)-7-oxo-1,6-diazabicyclo[3.2.1]-octane] | 1 | 2 | 0.5 | Activity of Ceftazidime (MIC) in presence of compound (E. coli M50; E. coli M 50, Class C ESBL, Table 4): 1 µg/mL; Activity of Ceftazidime (MIC) in presence of compound (E. coli B 89): 1 µg/mL; Activity of Ceftazidime (MIC) in presence of compound (A. baumannii 13304): 8 µg/mL; Activity of Ceftazidime (MIC) in presence of compound (E. coli W 13353): 0.25 µg/mL; Activity of Ceftazidime (MIC) in presence of compound (E. coli W 13352): 1 µg/mL; Activity of Ceftazidime (MIC) in presence of compound (K. pneumoniae H 520): 1 µg/mL; Activity of Ceftazidime (MIC) in presence of compound (E. coli 7MP; Class C ESBL, Table 4): 2 µg/mL; Activity of Ceftazidime (MIC) in presence of compound (A. baumannii 13301): >32 µg/mL; Activity of Ceftazidime (MIC) in presence of compound (E. coli W 13351): 0.5 µg/mL; Activity of Ceftazidime (MIC) in presence of compound (K. pneumoniae H 522): 1 µg/mL; Activity of Ceftazidime (MIC) in presence of compound (K. pneumoniae H 521): 1 µg/mL
4 | O=C1N2C[C@@H](CC[C@@H]2c2nnc(-c3ccon3)o2)N1OS(=O)(=O)[O-].[Na+] (relative stereo) [Example 5, Sodium salt of trans-6-(sulphooxy)-2-(5-(isooxazol-3-yl)-[1,3,4]-oxadiazol-2-yl)-7-oxo-1,6-diazabicyclo[3.2.1]-octane] | 4 | 16 | 4 | 
5 | O=C1N2C[C@@H](CC[C@@H]2c2nnc(-c3ccco3)o2)N1OS(=O)(=O)[O-].[Na+] (relative stereo) [Example 6, Sodium salt of trans-6-(sulphooxy)-2-(5-(furan-2-yl)-[1,3,4]-oxadiazol-2-yl)-7-oxo-1,6-diazabicyclo[3.2.1]-octane] | 16 | 32 | 32 | 
6 | O=C1N2C[C@@H](CC[C@@H]2c2nnc(-c3ccccc3)o2)N1OS(=O)(=O)O.[Na] (relative stereo) [Example 7, Sodium salt of trans-6-(sulphooxy)-2-(5-phenyl-[1,3,4]-oxadiazol-2-yl)-7-oxo-1,6-diazabicyclo[3.2.1]-octane] | 16 | 32 | 16 | 
7 | O=C1N2C[C@@H](CC[C@@H]2c2nnc(-c3ccccn3)o2)N1OS(=O)(=O)[O-].[Na+] (relative stereo) [Example 8, Sodium salt of trans-6-(sulphooxy)-2-(5-(pyridin-2-yl)-[1,3,4]-oxadiazol-2-yl)-7-oxo-1,6-diazabicyclo[3.2.1]-octane] | 16 | 32 | 16 | 
8 | NC(=O)c1cccc(-c2nnc([C@H]3CC[C@@H]4CN3C(=O)N4OS(=O)(=O)O)o2)n1.[Na] (relative stereo) [Example 9, Sodium salt of trans-6-(sulphooxy)-2-(5-(6-carboxamido-pyridin-2-yl)-[1,3,4]-oxadiazol-2-yl)-7-oxo-1,6-diazabicyclo[3.2.1]-octane] | 8 | >32 | 2 | 
9 | O=C1N2C[C@@H](CC[C@@H]2c2nnc(-c3cn4c(n3)COCC4)o2)N1OS(=O)(=O)O.[Na] (relative stereo) [Example 10, Sodium salt of trans-6-(sulphooxy)-2-(5-(5,6-dihydro-8H-imidazo[2,1-c][1,4]-oxazin-2-yl)-[1,3,4]-oxadiazol-2-yl)-7-oxo-1,6-diazabicyclo[3.2.1]-octane] | 16 | 32 | 16 | 
10 | O=C1N2C[C@@H](CC[C@@H]2c2nnc(CN3CCOCC3)o2)N1OS(=O)(=O)O.[Na] (relative stereo) [Example 11, Sodium salt of trans-6-(sulphooxy)-2-(5-(morpholino-4-methyl)-[1,3,4]-oxadiazol-2-yl)-7-oxo-1,6-diazabicyclo[3.2.1]-octane] | 2 | 32 | 1 | 
11 | O=C(c1nnc([C@H]2CC[C@@H]3CN2C(=O)N3OS(=O)(=O)[O-])o1)N1CCOCC1.[Na+] (relative stereo) [Example 12, Sodium salt of trans-sulfuric acid mono-[2-(5-(morpholin-4-yl-carbonyl)-[1,3,4]-oxadiazol-2-yl)-7-oxo-1,6-diazabicyclo[3.2.1]-octan-6-yl]ester] | 8 | 16 | 2 | 
